According to US9446031B2, “Compositions and methods for neovascularization” (National University of Singapore, priority 2012, dated 2016):
“Also recorded” adds a separate entry of the source.

Experiments:
Type in all cases: cell-based, human
[1] = tested on: IMR90 cells; test: ELISA of MCP-1 secreted by IMR90 cultured in EC conditioned medium
Method: FIG. 5: Endothelial CM modulates growth factor secretion by fibroblasts. (A) ELISA: fibroblasts secrete 5 times more MCP-1 cultured in EC CM. […] (B) and (C): semi-quantitative proteomic array plots showing clearance of EC secreted endothelin-1 and EGF from culture media in the presence of fibroblasts. […] To study the influence of endothelial cells on fibroblasts IMR90 cells were cultured in EC conditioned medium with or without the addition of CPX+S1P, and quantified factors secreted by fibroblasts by ELISA. […] Endothelial cell CM induced the secretion of MCP-1 by fibroblasts by 3-fold in the absence of any CPX+S1P induction, however, the combination of both pharmacological agents increased MCP-1 secretion by a further 20%.

[2] = tested on: IMR-90 fibroblasts; test: Proteome profiler of angiogenic proteins secreted by fibroblasts; settings: single agent compared with CPX+S1P
Source text: (§1) FIG. 4: CPX and S1P induce secretion of different angiogenic proteins by endothelial cells and fibroblasts. […] (E) and (J): representative images of 3 proteomic profiler membranes showing differences in protein secretion between CPX and S1P treated group and non-treated group (culture media control). (K) and (L): ELISA quantitation of PlGF and VEGF corroborating semi-quantitative results shown in A-I. The negative values in the plots denote the cellular uptake of the measured proteins as opposed to secrete them. * p<0.05 As the experimental set-up favoured soluble factors as messengers between the two cell types the secretion of angiogenic factors by fibroblasts and endothelial cells in the presence of CPX and S1P, respectively, was assessed. In fibroblasts, CPX+S1P expression of HGF (1.4 fold), IGFBP-2 (1.8 fold), uPA (1.6 fold) and VEGF (11 fold). […] In fibroblasts an increase of VEGF secretion which was 1819±754.1 (±standard error) pg/ml-Million cell-day was confirmed.

[3] = tested on: HUVEC; test: Proteome profiler of angiogenic proteins secreted by endothelial cells; settings: single agent compared with CPX+S1P
Source text: FIG. 4: CPX and S1P induce secretion of different angiogenic proteins by endothelial cells and fibroblasts. […] (E) and (J): representative images of 3 proteomic profiler membranes showing differences in protein secretion between CPX and S1P treated group and non-treated group (culture media control). (K) and (L): ELISA quantitation of PlGF and VEGF corroborating semi-quantitative results shown in A-I. The negative values in the plots denote the cellular uptake of the measured proteins as opposed to secrete them. * p<0.05 As the experimental set-up favoured soluble factors as messengers between the two cell types the secretion of angiogenic factors by fibroblasts and endothelial cells in the presence of CPX and S1P, respectively, was assessed. Proteome profiler data indicated the increased secretion of several proteins including PlGF (6 fold), IL-8 (3 fold), EGF (2.9 fold) and endothelin-1 (1.5 fold) by CPX+S1P by endothelial cells.

[4] = tested on: endothelia (HUVEC); test: ELISA quantitation of PlGF secretion by endothelial cells
Source text: as §1, with “p<0.05” for “p<0.05 As the experimental set-up favoured soluble factors as messengers between the two cell types the secretion of angiogenic factors by fibroblasts and endothelial cells in the presence of CPX and S1P, respectively, was assessed.”

[5] = tested on: fibroblasts (IMR-90); test: ELISA quantitation of VEGF secretion by fibroblasts
Source text: as §1, with “p<0.05” for “p<0.05 As the experimental set-up favoured soluble factors as messengers between the two cell types the secretion of angiogenic factors by fibroblasts and endothelial cells in the presence of CPX and S1P, respectively, was assessed.”

| SMILES | effect on MCP-1 secretion by fibroblasts, monosubstance [1] | increased secretion of HGF, IGFBP-2, uPA and VEGF by fibroblasts, single agent [2] | increased secretion of PlGF, IL-8, EGF and endothelin-1 by endothelial cells, single agent [3] | effect on PlGF secretion rate [4] | effect on VEGF secretion [5] |
| --- | --- | --- | --- | --- | --- |
| CCCCCCCCCCCCC/C=C/[C@@H](O)[C@@H](N)COP(=O)(O)O [S1P, sphingosine 1-phosphate] | neither S1P nor CPX were able to increase basal MCP-1 secretion; also recorded: No significant difference | none were observed | none were observed | did not show any effect | did not elicit measurable effects |
| Cc1cc(C2CCCCC2)n(O)c(=O)c1 [CPX, ciclopirox olamine] | neither S1P nor CPX were able to increase basal MCP-1 secretion; also recorded: No significant difference | Highly comparable increases; also recorded: main compound causing the observed upregulation | Highly comparable increases; also recorded: main compound causing the observed upregulation |  |  |
